Our source for the pest or weed control, chromatographic logP and efficacy values is patent publication US9758485B2, “Compounds for controlling arthropods” (priority 2013, dated 2017).

Like-named read-outs stand apart in the source and are kept apart here.

The subject of data set [1] is Tetranychus urticae. Kind of data set: Tetranychus urticae - spray test, OP-resistant. It counts as in vivo. Particulars: foliar, 144 h, application rate 100 g/ha, bean leaf discs, after 6 days, read-out: efficacy.
The test system of data set [2] is Spodoptera frugiperda. Kind of data set: Spodoptera frugiperda - spray test. Type of data set: in vivo. The conditions noted are these: foliar, 168 h, application rate 100 g/ha, caterpillars on maize leaf discs, after 7 days, read-out: efficacy.
The nature of data set [3]: logP determination by HPLC on a reversed-phase column (C18), EEC Directive 79/831 Annex V.A8. Type of data set: physicochemical.
Data set [4] concerns Ctenocephalides felis. Kind of data set: Ctenocephalides felis - in vitro contact tests with adult cat fleas. Type of data set: in vivo. Particulars: application rate 5 μg/cm^2 (=500 g/ha), after 48 h (dead or moribund). The method in brief: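 Acetone solution coated on test-tube inner walls (900 ppm gives 5 μg/cm^2). After drying, 5-10 adult cat fleas added and kept horizontal at room temperature and ambient humidity. At 48 h fleas knocked down; motionless or uncoordinated ones counted dead/moribund, giving % efficacy.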

As to `Cc1cc(C(F)(C(F)(F)F)C(F)(F)F)cc(C)c1-n1cc(-c2ccc(Cl)c(C(=O)NC3CC3)c2)cn1` [I-T3-1, 2-chloro-N-cyclopropyl-5-[1-[2,6-dimethyl-4-[1,2,2,2-tetrafluoro-1-(trifluoromethyl)ethyl]phenyl]pyrazol-4-yl]benzamide], the pest or weed control at 100 g/ha in data set [1] and in data set [2] was 100% in each case. For the same compound, the chromatographic logP in data set [3] (reversed-phase HPLC column (C18), HPLC, reversed-phase C18, acetonitrile/water with formic acid, 55° C., read-out: logP) turned out to be 4.36; in data set [3] (reversed-phase HPLC column (C18), HPLC-MS method a), Table I-T3; read-out: logP^a)) it was 4.4; in data set [3] (reversed-phase HPLC column (C18), HPLC-MS method a); read-out: logP^a)) it was 4.4. The compound further yielded an efficacy in data set [4] of 100%.
